The target in data set [1] is T1, Lipoxygenase in platelet (Homo sapiens, UniProt P18054).
T1 construct: the metabolism of radioactively labelled arachidonic acid on washed human platelets is used; endogenous in cells; host or cells: washed human platelets
T1 sequence (P18054 1-663): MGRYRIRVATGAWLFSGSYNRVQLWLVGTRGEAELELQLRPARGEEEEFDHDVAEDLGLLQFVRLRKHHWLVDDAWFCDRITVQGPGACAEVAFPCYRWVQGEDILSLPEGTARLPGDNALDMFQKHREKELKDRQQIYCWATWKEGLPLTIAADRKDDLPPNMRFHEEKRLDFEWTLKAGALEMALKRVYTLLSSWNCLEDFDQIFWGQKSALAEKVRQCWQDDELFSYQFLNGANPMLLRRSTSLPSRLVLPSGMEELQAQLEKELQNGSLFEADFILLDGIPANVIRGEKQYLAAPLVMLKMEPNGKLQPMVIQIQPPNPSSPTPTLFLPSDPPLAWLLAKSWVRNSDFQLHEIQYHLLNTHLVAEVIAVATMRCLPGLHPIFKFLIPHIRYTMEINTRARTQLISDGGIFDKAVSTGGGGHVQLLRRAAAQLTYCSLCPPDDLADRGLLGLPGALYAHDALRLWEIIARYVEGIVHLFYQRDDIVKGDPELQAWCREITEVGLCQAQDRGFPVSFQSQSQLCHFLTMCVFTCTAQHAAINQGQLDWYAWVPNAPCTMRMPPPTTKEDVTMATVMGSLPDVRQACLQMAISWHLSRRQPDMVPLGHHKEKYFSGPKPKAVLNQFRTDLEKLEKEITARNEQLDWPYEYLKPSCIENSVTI
In words: Inhibition of lipoxygenase in washed human platelets (HETE synthesis from radioactively labelled arachidonic acid). The format is cell-based. The note with it: in vitro. As to the method:
In this test method, the metabolism of radioactively labelled arachidonic acid on washed human platelets is used. In this in vitro test, the radioactively labelled metabolites are extracted from the reaction mixture and separated by thin-layer chromatography. The autoradiogram is evaluated on a thin-layer scanner. Under these test conditions, the labelled metabolites are separated from the unreacted arachidonic acid and can then be evaluated quantitatively. The distribution of radioactivity over the products of cyclooxygenase formed during the metabolism, thromboxane B2 (TXB2) and 12-hydroxy-5,8,10-heptadecatrienoic acid (HHT) and the product of lipoxygenase, 12-hydroxy-5,8,11,14-eicosatetraenoic acid (HETE), under the influence of the inhibitors provides a measure of the inhibition of the enzymes.
The inhibition of lipoxygenase by the compounds according to the invention can be measured by the inhibition of synthesis of HETE. It emerges that the synthesis of TXB2 and of HHT remains unaffected, whilst the conversion of arachidonic acid decreases. […] (Compare Table 1).

Data set [2] concerns Lipoxygenase in PMN Leucocytes. In words: Inhibition of lipoxygenase in PMN leucocytes (liberation of 5-HETE and leukotriene B4). Format: cell-based, humans and rabbits. The note with it: in vitro. As to the method:
The polymorphonuclear leucocytes of humans and of rabbits metabolise arachidonic acid to 5-hydroxy-5,8,11,14-eicosatetraenoic acid (5-HETE) and leukotriene B4 (5S, 12R-dihydroxy-6 cis, 8,10-trans-14 cis-eicosatetraenoic acid). The inhibition of the liberation of 5-HETE and leukotriene B4 from the leucocytes provides a measure of the lipoxygenase-inhibitory effect of the compounds according to the invention. (Compare Table 1).
The test with human leucocytes is carried out by the method of Borgeat and Samuelsson (j. Biol. Chem. 254; 2643, 1979 and Proc. Natl. Acad. Sci. USA, 76, 2148 (1979), and with rabbit leucocytes by the method of Walker and Parish (Inter. Archs. Allergy appl. Immun. 66, 83, 1981).

Data set [3] deals with melanoma B 16. The data set is described as follows: Inhibition of the initiation of pulmonary metastases in melanoma B 16. The format is in vivo. The settings on record: melanoma B 16, mouse, three i.p. administrations of 1 mg/kg. An excerpt: (§1) The compounds according to the invention are also active in vivo. […] The compounds according to the invention also reduce the formation of oedema in the model of carrageenan inflammation, (compare Table 3) and inhibit the formation of metastases from B-16 melanoma (method of Honn, et. al. Science 212, 1270, 1981).

Data set [4] concerns prostacyclin synthesis in strips of rabbit aorta. The data set is described as follows: Stimulation of prostacyclin synthesis in strips of rabbit aorta. The note with it: Oryctolagus cuniculus, 1 h, read-out: Stimulation in % compared to control (prostacyclin synthesis); for activation at 2 µg/mL: 2.10^6 g/ml of substance. Format: cell-based.
Data set [5] deals with carrageenan oedema. In words: Inhibition of carrageenan oedema formation. The note with it: rat, oral administration of 25 mg/kg. The format is in vivo.
From the text: as §1

In data set [6] the test system is cyclooxygenase. The settings on record: cited from earlier work.
For data set [7] the following is noted: systemic administration (for example orally); cited from earlier work.

`Cn1ncc2c1Nc1ccccc1O2`: the “Minimum concentration (g/ml) for inhibition of Lipoxygenase in platelet” value in data set [1] is on record as 10^-6 g/ml. In addition, the “Minimum concentration (g/ml) for inhibition of Lipoxygenase in PMN Leucocytes” value in data set [2] was 10^-6 g/ml.

In the case of `c1ccc2cc3c(cc2c1)Nc1[nH]ncc1O3` [Compound 18], the “% Inhibition of the initiation of pulmonary metastases” value in data set [3] is given as 36%.

Consider `Clc1ccc2c(c1)Nc1[nH]ncc1O2` [drawing 13], for which the “Minimum concentration (g/ml) for inhibition of Lipoxygenase in platelet” value in data set [1] is 10^-6 g/ml. In data set [2], the “Minimum concentration (g/ml) for inhibition of Lipoxygenase in PMN Leucocytes” value is 10^-6 g/ml.

On to `Cc1ccc2c(c1)Nc1[nH]ncc1O2` [drawing 14], for which the “Minimum concentration (g/ml) for inhibition of Lipoxygenase in platelet” value in data set [1] was 10^-6 g/ml. In addition, the “Minimum concentration (g/ml) for inhibition of Lipoxygenase in PMN Leucocytes” value in data set [2] was 10^-6 g/ml.

`c1ccc2c(c1)Nc1[nH]ncc1S2` [Compound 12]: the activation at 2 µg/mL in data set [4] turned out to be 80%.

On to `O=C(O)Cn1cc2c(n1)N(C1CCCCC1)c1ccccc1O2` [Compound 40, 9-Cyclohexylpyrazolo[4,3-b][1,4]benzoxazine-2-acetic acid], for which the “Minimum concentration (g/ml) for inhibition of Lipoxygenase in PMN Leucocytes” value in data set [2] was > 10^-5 g/ml. The inhibition in vivo at 25 mg/kg in data set [5] was found to be 44%.

For the compound `CC(=O)n1cc2c(n1)N(C)c1ccccc1O2` [Compound 44, 2-Acetyl-9-methylpyrazolo[4,3-b][1,4]benzoxazine], in data set [5], at 25 mg/kg the inhibition in vivo was 70%.

For `O=C1CCN(c2ccccc2)N1` [phenidone], the “action of known lipoxygenase inhibitors, in words” value in data set [6] is given as “either also act as inhibitors of cyclooxygenase or only act at very high concentrations”.

Consider `CCCCCC#CCC#CCC#CCC#CCCCC(=O)O` [5,8,11,14-eicosatetraynoic acid], for which, in data set [6], the “action of known lipoxygenase inhibitors, in words” value is listed as “either also act as inhibitors of cyclooxygenase or only act at very high concentrations”.

`CN(C)S(=O)(=O)c1ccc2c(c1)Oc1cn[nH]c1N2`: in data set [1], the “Minimum concentration (g/ml) for inhibition of Lipoxygenase in platelet” value was 10^-5 g/ml.

In the case of `Clc1ccc2c(c1)Nc1[nH]ncc1S2`, the “Minimum concentration (g/ml) for inhibition of Lipoxygenase in platelet” value in data set [1] is 10^-6 g/ml.

In the case of `Cc1ccc2c(c1)Nc1[nH]ncc1S2`, the “Minimum concentration (g/ml) for inhibition of Lipoxygenase in platelet” value in data set [1] is given as 10^-6 g/ml. The “Minimum concentration (g/ml) for inhibition of Lipoxygenase in PMN Leucocytes” value in data set [2] is on record as 10^-6 g/ml.

In data set [5], `CN1c2ccccc2Oc2cn[nH]c21` [Compound 10] had an inhibition in vivo at 25 mg/kg of 73.4%.

For the compound `Cn1ncc2c1Nc1cc3ccccc3cc1O2` [Compound 19], the “% Inhibition of the initiation of pulmonary metastases” value in data set [3] came out at 30%.

Turning to `c1ccc2cc3c(cc2c1)Nc1[nH]ncc1O3` [drawing 29], the “Minimum concentration (g/ml) for inhibition of Lipoxygenase in platelet” value in data set [1] was 10^-6 g/ml. Moreover, in data set [2], the “Minimum concentration (g/ml) for inhibition of Lipoxygenase in PMN Leucocytes” value is 10^-6 g/ml.

`O=S1(=O)c2ccccc2Nc2[nH]ncc21` [Compound 16] registered an inhibition in vivo at 25 mg/kg in data set [5] of 45.4%.

As to `CN1c2ccccc2Oc2cnn(C)c21` [Compound 24], the activation at 10 µg/mL in data set [4] (at 10^-5 g/ml substance concentration) came to 100%.

Turning to `CC(Cc1ccc(O)c(O)c1)C(C)Cc1ccc(O)c(O)c1` (stereo not drawn) [nordihydroguaiaretic acid], the “action of known lipoxygenase inhibitors, in words” value in data set [6] is given as “either also act as inhibitors of cyclooxygenase or only act at very high concentrations”.

Turning to `Cn1ncc2c1Nc1cc(Cl)ccc1O2`, the “Minimum concentration (g/ml) for inhibition of Lipoxygenase in platelet” value in data set [1] is given as 10^-6 g/ml. In data set [2], the “Minimum concentration (g/ml) for inhibition of Lipoxygenase in PMN Leucocytes” value is recorded as 10^-6 g/ml.

In the case of `c1cnc2c(c1)Oc1cn[nH]c1N2` [Compound 17], in data set [4], the activation at 2 µg/mL is 200%.

Regarding `CN1c2ccccc2Oc2cn(C(=O)c3ccccn3)nc21` [Compound 42], the inhibition in vivo at 25 mg/kg in data set [5] was determined as 67.3%.

Turning to `NC1=NN(c2cccc(C(F)(F)F)c2)CC1` [3-amino-1-(m-trifluoromethylphenyl)-2-pyrazoline], the “action of known lipoxygenase inhibitors, in words” value in data set [6] was “either also act as inhibitors of cyclooxygenase or only act at very high concentrations”. Besides, the “toxic side effects, in words” value in data set [7] is reported as “toxic side effects on systemic administration (for example orally)”.

By inhibition in vivo is commonly meant the relative decrease from the control value, in per cent.

Values taken from patent publication US4552874A, “Pyrazolooxazines, pyrazolothiazines, and pryazoloquinolines and their use as medicaments” (Bayer Aktiengesellschaft, priority 1982, dated 1985).
